The record followed here is patent US20140038950A1, “PLANT TREATMENT” (priority 2012, published 2014).

The nature of data set [1]: Direct trunk injection, phytotoxicity. Format: in vivo. The following applies: movement into xylem vessels. The source says: For direct trunk injections, the azoxystrobin fungicide is compatible with the physiology of the plants. […] Other formulations such as fluoxastrobin are not advised for direct trunk injections.
In a further data set the test system is common dogwood diseases. Kind of data set: Drench experiments on flowering dogwoods. To be noted: soil drench; compared with fluoxastrobin (personal experience). Format: in vivo. The source says: Evidence of how far you have to stray from my preferred formulation and application plan before the invention stops being useful (in other words, what are the boundaries of this invention). Not all strobilurins have xylem mobility only azoxystrobin and fluoxastrobin show this ability.

Each structure is given as a SMILES string.

Consider `CO/C=C(/C(=O)OC)c1ccccc1Oc1cc(Oc2ccccc2C#N)ncn1` [azoxystrobin], for which, in data set [1], the phytotoxicity result is “without phytotoxicity”. Further, the “control of common dogwood diseases” value with common dogwood diseases is given as “excellent season long control”.
